Active and inactive are the calls of the source. The rule behind the calls is not given here.
Tested on: M. tuberculosis BioA-TetON underexpression strain, growth inhibition
Assay: m tuberculosis bioa teton underexpression strain, growth inhibition, cell based, single point (AID 743352)

## CN1c2ccc(-c3ccc(F)cc3)cc2[C@H]2[C@H](CCN2C(=O)Cc2cccnc2)[C@H]1CO
  IC90: > 50 µM (inactive)

## CC(=O)c1ccc(N2CCN(C(=O)c3ccc4c(c3)OCO4)CC2)cc1
  IC90: 22.2 µM

## CN1c2ccc(-c3cccc(F)c3)cc2[C@H]2[C@H](CCN2C(=O)CCCCCCN)[C@H]1CO
  IC90: > 50 µM (inactive)

## CC(C)NC(=O)N1CC[C@@H]2[C@@H](CO)N(C)c3ccc(-c4ccc(F)cc4)cc3[C@@H]21
  IC90: > 50 µM (inactive)

## COc1ccccc1NC(=O)N1CC[C@@H]2[C@@H](CO)N(C)c3ccc(-c4ccc(F)cc4)cc3[C@@H]21
  IC90: > 50 µM (inactive)

## CC(=O)c1ccc(N2CCN(C(=O)c3ccccc3F)CC2)cc1
  IC90: > 50 µM (inactive)

## CN1c2ccc(-c3cccc(F)c3)cc2[C@H]2[C@H](CCN2C(=O)Cc2ccccc2)[C@H]1CO
  IC90: > 50 µM (inactive)

## CCCCCCCC(=O)N1CC[C@@H]2[C@@H](CO)N(C)c3ccc(-c4cccc(F)c4)cc3[C@@H]21
  IC90: > 50 µM (inactive)

## CN1c2ccc(-c3cccc(F)c3)cc2[C@@H]2[C@@H](CCN2C(=O)c2ccc3c(c2)OCO3)[C@H]1CO
  IC90: > 50 µM (inactive)

## CC(=O)c1ccc(N2CCN(C(=O)c3ccccc3Cl)CC2)cc1
  IC90: > 50 µM (inactive)

## CN1c2ccc(-c3cccc(F)c3)cc2[C@H]2[C@H](CCN2C(=O)c2ccc3c(c2)OCO3)[C@@H]1CO
  IC90: > 50 µM (inactive)

## CCC(=O)N1CC[C@@H]2[C@@H](CO)N(C)c3ccc(-c4ccc(F)cc4)cc3[C@@H]21
  IC90: > 50 µM (inactive)

## COCC(=O)N1CC[C@@H]2[C@@H](CO)N(C)c3ccc(-c4cccc(F)c4)cc3[C@@H]21
  IC90: > 50 µM (inactive)

## CN(C)C(=O)c1ccc(N2CCN(C(=O)c3ccc4c(c3)OCO4)CC2)cc1
  IC90: > 50 µM (inactive)

## CC(=O)c1ccc(N2CC3(CN(C(=O)c4ccc5c(c4)OCO5)C3)C2)cc1
  IC90: > 50 µM (inactive)

## CC(C)NC(=O)N1CC[C@@H]2[C@@H](CO)N(C)c3ccc(-c4cccc(F)c4)cc3[C@@H]21
  IC90: > 50 µM (inactive)

## COC(=O)CCCCCCC(=O)N1CC[C@@H]2[C@@H](CO)N(C)c3ccc(-c4cccc(F)c4)cc3[C@@H]21
  IC90: > 50 µM (inactive)

## CC(=O)c1ccc(NCCNC(=O)c2ccc3c(c2)OCO3)cc1
  IC90: > 50 µM (inactive)

## COc1cccc(NC(=O)N2CC[C@@H]3[C@@H](CO)N(C)c4ccc(-c5cccc(F)c5)cc4[C@@H]32)c1
  IC90: > 50 µM (inactive)

## CN1c2ccc(-c3ccc(F)cc3)cc2[C@H]2[C@H](CCN2C(=O)Nc2cc(F)ccc2F)[C@H]1CO
  IC90: > 50 µM (inactive)

## CC(=O)c1ccc(N2CCN(C(=O)c3ccc4c(c3)OCO4)[C@H](C)C2)cc1
  IC90: 17.3 µM

## CNC(=O)c1ccc(N2CCN(C(=O)c3ccc4c(c3)OCO4)CC2)cc1
  IC90: > 50 µM (inactive)

## CN1c2ccc(-c3ccc(F)cc3)cc2[C@H]2[C@H](CCN2C(=O)Cc2ccccn2)[C@H]1CO
  IC90: > 50 µM (inactive)

## CN1c2ccc(-c3cccc(F)c3)cc2[C@H]2[C@H](CCN2C(=O)CCCCCCC(=O)O)[C@H]1CO
  IC90: > 50 µM (inactive)

## CN1c2ccc(-c3cccc(F)c3)cc2[C@@H]2[C@@H](CCN2C(=O)c2ccc3c(c2)OCO3)[C@@H]1CO
  IC90: > 50 µM (inactive)

## CCCNC(=O)N1CC[C@@H]2[C@@H](CO)N(C)c3ccc(-c4ccc(F)cc4)cc3[C@@H]21
  IC90: > 50 µM (inactive)

## COc1ccccc1NC(=O)N1CC[C@@H]2[C@@H](CO)N(C)c3ccc(-c4cccc(F)c4)cc3[C@@H]21
  IC90: > 50 µM (inactive)

## CN1c2ccc(-c3cccc(F)c3)cc2[C@H]2[C@H](CCN2C(=O)Nc2ccccc2F)[C@H]1CO
  IC90: > 50 µM (inactive)

## COc1ccc(NC(=O)N2CC[C@@H]3[C@@H](CO)N(C)c4ccc(-c5ccc(F)cc5)cc4[C@@H]32)cc1
  IC90: > 50 µM (inactive)

## COc1ccccc1C(=O)N1CCN(c2ccc(C(C)=O)cc2)CC1
  IC90: > 50 µM (inactive)

## CN1c2ccc(-c3cccc(F)c3)cc2[C@H]2[C@H](CCN2C(=O)Cc2cccnc2)[C@H]1CO
  IC90: > 50 µM (inactive)

## CN1c2ccc(-c3ccc(F)cc3)cc2[C@H]2[C@H](CCN2C(=O)Nc2ccc(F)cc2)[C@H]1CO
  IC90: > 50 µM (inactive)

## CNS(=O)(=O)c1ccc(N2CCN(C(=O)c3ccc4c(c3)OCO4)CC2)cc1
  IC90: > 50 µM (inactive)

## COc1ccc(NC(=O)N2CC[C@@H]3[C@@H](CO)N(C)c4ccc(-c5cccc(F)c5)cc4[C@@H]32)cc1
  IC90: > 50 µM (inactive)

Reference: PubChem BioAssay AID743352 (Broad Institute, 2014)
